Assay results reported in patent US8324250B2 (Hoffmann-La Roche Inc., priority 2009, dated 2012).

Legend:
[1] = molecular target: T1, recombinant human NK3 receptor (Homo sapiens, UniProt P29371); experiment: [3H]SR142801 competition binding assay; conditions: membranes from HEK293 cells transiently expressing recombinant human NK3 receptor; [3H]SR142801 radioligand; 75 min at RT; Ki by Cheng-Prussoff; read-out: Data Ki (hNK-3 receptor affinity)
T1 construct: expressed in transfected cells; host or cells: HEK293 cells (transient expression), membranes
T1 sequence (P29371 1-465): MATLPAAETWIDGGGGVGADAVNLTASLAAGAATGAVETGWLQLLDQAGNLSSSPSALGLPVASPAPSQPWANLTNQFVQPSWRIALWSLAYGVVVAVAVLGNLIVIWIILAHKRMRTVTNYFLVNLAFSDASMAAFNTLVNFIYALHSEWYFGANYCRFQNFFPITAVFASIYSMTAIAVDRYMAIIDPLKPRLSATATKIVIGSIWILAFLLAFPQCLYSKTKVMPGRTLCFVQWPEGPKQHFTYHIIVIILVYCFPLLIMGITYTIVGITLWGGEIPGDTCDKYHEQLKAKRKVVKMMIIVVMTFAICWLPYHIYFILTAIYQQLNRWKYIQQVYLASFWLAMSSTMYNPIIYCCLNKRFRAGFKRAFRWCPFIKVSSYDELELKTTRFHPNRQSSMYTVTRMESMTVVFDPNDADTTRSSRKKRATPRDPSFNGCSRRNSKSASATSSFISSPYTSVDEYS
In short: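 Membranes from HEK293 cells transiently expressing the receptor, 5 μg protein/well, in 50 mM Tris-HCl pH 7.4 with 4 mM MnCl2, 1 μM phosphoramidon, 0.1% BSA; nonspecific binding defined with 10 μM SB222200. Filtration and scintillation counting; IC50 from Hill fit, Ki by Cheng-Prussoff using saturation-derived KD, duplicates.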

[2] = phase II trial, cited from earlier work

SMILES: CC(=O)c1ccc(N2CCN(C(=O)N3CCC(C(=O)N[C@@H](C)c4ccccc4)(c4ccccc4)CC3)CC2)cc1 [Example 207, 1-[4-(4-Acetyl-phenyl)-piperazine-1-carbonyl]-4-phenyl-piperidine-4-carboxylic acid ((S)-1-phenyl-ethyl)-amide]
- Ki [1]: 36.3 nM

SMILES: Cc1ccc(N2CCN(C(=O)N3CCC(C(=O)N[C@@H](C)c4ccccc4)(c4ccccc4)CC3)CC2)cc1 [Example 208, 4-Phenyl-1-(4-p-tolyl-piperazine-1-carbonyl)-piperidine-4-carboxylic acid ((S)-1-phenyl-ethyl)-amide]
- Ki [1]: 70.9 nM

SMILES: C[C@H](NC(=O)C1(c2ccccc2)CCN(C(=O)N2CCN(c3cnccn3)CC2)CC1)c1ccccc1 [Example 209, 4-Phenyl-1-(2,3,5,6-tetrahydro-[1,2′]bipyrazinyl-4-carbonyl)-piperidine-4-carboxylic acid ((S)-1-phenyl-ethyl)-amide]
- Ki [1]: 58.4 nM

SMILES: C[C@H](NC(=O)C1(c2ccccc2)CCN(C(=O)N2CCN(c3ccc(S(C)(=O)=O)cc3F)CC2)CC1)c1ccccc1 [Example 211, 1-[4-(2-Fluoro-4-methanesulfonyl-phenyl)-piperazine-1-carbonyl]-4-phenyl-piperidine-4-carboxylic acid ((S)-1-phenyl-ethyl)-amide]
- Ki [1]: 29.4 nM

SMILES: C[C@H](NC(=O)C1(c2ccccc2)CCN(C(=O)N2CCN(c3ccc(F)cc3)CC2)CC1)c1ccccc1 [Example 213, 1-[4-(4-Fluoro-phenyl)-piperazine-1-carbonyl]-4-phenyl-piperidine-4-carboxylic acid ((S)-1-phenyl-ethyl)-amide]
- Ki [1]: 8.8 nM

SMILES: Cc1noc(C2CCN(C(=O)N3CCC(C(=O)N[C@@H](C)c4ccccc4)(c4ccccc4)CC3)CC2)n1 [Example 214, 1-[4-(3-Methyl-[1,2,4]oxadiazol-5-yl)-piperidine-1-carbonyl]-4-phenyl-piperidine-4-carboxylic acid ((S)-1-phenyl-ethyl)-amide]
- Ki [1]: 9 nM

SMILES: C[C@H](NC(=O)C1(c2ccccc2)CCN(C(=O)N2CCN(C3CCCC3)CC2)CC1)c1ccccc1 [Example 215, 1-(4-Cyclopentyl-piperazine-1-carbonyl)-4-phenyl-piperidine-4-carboxylic acid ((S)-1-phenyl-ethyl)-amide]
- Ki [1]: 20.6 nM

SMILES: C[C@H](NC(=O)C1(c2ccccc2)CCN(C(=O)N2CCC(N3CCCCC3=O)CC2)CC1)c1ccccc1 [Example 216, 1-(2-Oxo-[1,4′]bipiperidinyl-1′-carbonyl)-4-phenyl-piperidine-4-carboxylic acid ((S)-1-phenyl-ethyl)-amide]
- Ki [1]: 17.2 nM

SMILES: C[C@H](NC(=O)C1(c2ccccc2)CCN(C(=O)N2CCC(N3CCSCC3)CC2)CC1)c1ccccc1 [Example 218, 4-Phenyl-1-(4-thiomorpholin-4-yl-piperidine-1-carbonyl)-piperidine-4-carboxylic acid ((S)-1-phenyl-ethyl)-amide]
- Ki [1]: 5.2 nM

SMILES: C[C@H](NC(=O)C1(c2ccccc2)CCN(C(=O)N2CCN(c3ccc(Cl)cc3)CC2)CC1)c1ccccc1 [Example 219, 1-[4-(4-Chloro-phenyl)-piperazine-1-carbonyl]-4-phenyl-piperidine-4-carboxylic acid ((S)-1-phenyl-ethyl)-amide]
- Ki [1]: 12.5 nM

SMILES: Cc1nnc(C)n1C1CCN(C(=O)N2CCC(C(=O)N[C@@H](C)c3ccccc3)(c3ccccc3)CC2)CC1 [Example 220, 1-[4-(3,5-Dimethyl-[1,2,4]triazol-4-yl)-piperidine-1-carbonyl]-4-phenyl-piperidine-4-carboxylic acid ((S)-1-phenyl-ethyl)-amide]
- Ki [1]: 63.9 nM

SMILES: Cc1noc(C2CCN(C(=O)N3CCC(C(=O)N[C@@H](C)c4ccc(F)cc4)(c4ccccc4)CC3)CC2)n1 [Example 221, 1-[4-(3-Methyl-[1,2,4]oxadiazol-5-yl)-piperidine-1-carbonyl]-4-phenyl-piperidine-4-carboxylic acid [(S)-1-(4-fluoro-phenyl)-ethyl]-amide]
- Ki [1]: 11.7 nM

SMILES: C[C@H](NC(=O)C1(c2ccccc2)CCN(C(=O)N2CCC(N3CCSCC3)CC2)CC1)c1ccc(F)cc1 [Example 222, 4-Phenyl-1-(4-thiomorpholin-4-yl-piperidine-1-carbonyl)-piperidine-4-carboxylic acid [(S)-1-(4-fluoro-phenyl)-ethyl]-amide]
- Ki [1]: 10 nM

SMILES: C[C@H](NC(=O)C1(c2ccccc2)CCN(C(=O)N2CCC(N3CCS(=O)(=O)CC3)CC2)CC1)c1ccc(F)cc1 [Example 223, 1-[4-(1,1-Dioxo-1λ6-thiomorpholin-4-yl)-piperidine-1-carbonyl]-4-phenyl-piperidine-4-carboxylic acid [(S)-1-(4-fluoro-phenyl)-ethyl]-amide]
- Ki [1]: 6 nM

SMILES: C[C@H](NC(=O)C1(c2ccccc2)CCN(C(=O)N2CCN(c3cccnc3)CC2)CC1)c1ccccc1 [Example 224, 4-Phenyl-1-(4-pyridin-3-yl-piperazine-1-carbonyl)-piperidine-4-carboxylic acid ((S)-1-phenyl-ethyl)-amide]
- Ki [1]: 63.8 nM

SMILES: C[C@H](NC(=O)C1(c2ccccc2)CCN(C(=O)N2CCN(c3cc(C#N)ccn3)CC2)CC1)c1ccccc1 [Example 225, 1-[4-(4-Cyano-pyridin-2-yl)-piperazine-1-carbonyl]-4-phenyl-piperidine-4-carboxylic acid ((S)-1-phenyl-ethyl)-amide]
- Ki [1]: 50.6 nM

SMILES: Cc1cccc(N2CCN(C(=O)N3CCC(C(=O)N[C@@H](C)c4ccccc4)(c4ccccc4)CC3)CC2)c1 [Example 226, 4-Phenyl-1-(4-m-tolyl-piperazine-1-carbonyl)-piperidine-4-carboxylic acid ((S)-1-phenyl-ethyl)-amide]
- Ki [1]: 64.8 nM

SMILES: C[C@H](NC(=O)C1(c2ccccc2)CCN(C(=O)N2CCN(c3ccc(C#N)cn3)CC2)CC1)c1ccccc1 [Example 227, 1-[4-(5-Cyano-pyridin-2-yl)-piperazine-1-carbonyl]-4-phenyl-piperidine-4-carboxylic acid ((S)-1-phenyl-ethyl)-amide]
- Ki [1]: 24.9 nM

SMILES: Cc1ccccc1N1CCN(C(=O)N2CCC(C(=O)N[C@@H](C)c3ccccc3)(c3ccccc3)CC2)CC1 [Example 229, 4-Phenyl-1-(4-o-tolyl-piperazine-1-carbonyl)-piperidine-4-carboxylic acid ((S)-1-phenyl-ethyl)-amide]
- Ki [1]: 34.9 nM

SMILES: C[C@H](NC(=O)C1(c2ccccc2)CCN(C(=O)N2CCN(C3CCCCC3)CC2)CC1)c1ccccc1 [Example 230, 1-(4-Cyclohexyl-piperazine-1-carbonyl)-4-phenyl-piperidine-4-carboxylic acid ((S)-1-phenyl-ethyl)-amide]
- Ki [1]: 22.1 nM

SMILES: CC[C@H](NC(=O)C1(c2ccccc2)CCN(C(=O)N2CCN(c3ccc(F)cc3)CC2)CC1)c1ccccc1 [Example 231, 1-[4-(4-Fluoro-phenyl)-piperazine-1-carbonyl]-4-phenyl-piperidine-4-carboxylic acid ((S)-1-phenyl-propyl)-amide]
- Ki [1]: 3.4 nM

SMILES: C[C@H](NC(=O)C1(c2ccccc2)CCN(C(=O)N2CCN(c3ccccc3)CC2)CC1)c1ccccc1 [Example 232, 4-Phenyl-1-(4-phenyl-piperazine-1-carbonyl)-piperidine-4-carboxylic acid ((S)-1-phenyl-ethyl)-amide]
- Ki [1]: 36.3 nM

SMILES: C[C@H](NC(=O)C1(c2ccccc2)CCN(C(=O)N2CCN(c3ccc(F)cc3)CC2)CC1)C1CCCCC1 [Example 233, 1-[4-(4-Fluoro-phenyl)-piperazine-1-carbonyl]-4-phenyl-piperidine-4-carboxylic acid ((S)-1-cyclohexyl-ethyl)-amide]
- Ki [1]: 5.3 nM

SMILES: CC(=O)N(C)C1(c2ccccc2)CCN(CCC[C@]2(c3ccc(Cl)c(Cl)c3)CCCN(C(=O)c3ccccc3)C2)CC1 [SR 142,801, Osanetant]
- activity in the treatment of negative symptoms of schizophrenia ([2]; negative symptoms (depression, anhedonia, social isolation, memory and attention deficits)): inactive
- activity on positive symptoms of schizophrenia ([2]; positive symptoms (altered behaviour, delusion, hallucinations, extreme emotions, excited motor activity, incoherent speech)): active
